Data from patent US20230293698A1, “METAL-ORGANIC FRAMEWORKS DELIVER SMALL MOLECULES AND BIOMACROMOLECULES FOR CANCER IMMUNOTHERAPY” (The University of Chicago, priority 2020, published 2023).

Tests used:
MC38 tumor = conditions: intratumoral injection, Cy5 label
Excerpt: The images were processed and analyzed by software sold under the tradename LIVING IMAGE® 4.7.2 (PerkinElmer, Waltham, Massachusetts, United States of America).

[1] = Toxicity after intravenous injection; format: in vivo; conditions: C57BL/6 mice, biweekly, total of 4 doses

## Nc1nc2c(ncn2[C@@H]2O[C@@H]3COP(=O)(O)O[C@H]4[C@@H](O)[C@H](n5cnc6c(N)ncnc65)O[C@@H]4COP(=O)(O)O[C@@H]2[C@@H]3O)c(=O)[nH]1 [cGAMP, cyclic guanosine monophosphate-adenosine monophosphate]
MC38 tumor
  fluorescence signal retention in tumor: diffused and disappeared quickly

## Ir(DBB)[dF(CF3)ppy]2^+ [DBB^F-Ir]
[1]
  toxicity (bodyweight gains): did not cause toxicity
